Assay results: the supplement of paper PMC10307832

Assays:
Assay in all cases: relative viability (nuclei count vs DMSO), 5 days (fraction); higher = more cells survive
[1] = system: ABC-1
Summary of the method: (§1)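 Nuclei were stained with Hoechst during a one-step fixation (final 0.05% Triton X-100, 1% formaldehyde, 1 ug/ml Hoechst) carried out 5 days after dosing, then counted on 4× images. The cells, lung cancer lines in 1536-well plates, had been dosed by pin tool the day after seeding with one drug alone or a fixed anchor-drug dose plus five library-drug doses (not always all listed) in √10 steps. Relative viability is the nuclei count in treated wells divided by that in vehicle wells, and each value is the median of duplicate plates.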

[2] = system: CAL-12T
Summary of the method: as §1

[3] = system: ChaGo-K-1
Summary of the method: as §1

[4] = system: HCC-366
Summary of the method: as §1

[5] = system: HCC-78
Summary of the method: as §1

[6] = system: LC-2-ad
Summary of the method: as §1

[7] = system: LOU-NH91
Summary of the method: as §1

[8] = system: LU99A
Summary of the method: as §1

[9] = system: NCI-H1395
Summary of the method: as §1

[10] = system: NCI-H1651
Summary of the method: as §1

[11] = system: NCI-H1734
Summary of the method: as §1

[12] = system: NCI-H1755
Summary of the method: as §1

[13] = system: NCI-H1793
Summary of the method: as §1

[14] = system: NCI-H1944
Summary of the method: as §1

[15] = system: NCI-H2087
Summary of the method: as §1

[16] = system: NCI-H2170
Summary of the method: as §1

[17] = system: NCI-H2228
Summary of the method: as §1

[18] = system: NCI-H2405
Summary of the method: as §1

[19] = system: NCI-H3122
Summary of the method: as §1

[20] = system: NCI-H460
Summary of the method: as §1

[21] = system: PC-3 [JPC-3]
Summary of the method: as §1

[22] = system: RERF-LC-KJ
Summary of the method: as §1

[23] = system: UMC-11
Summary of the method: as §1

For `CC1(C)CCC(c2ccc(Cl)cc2)=C(CN2CCN(c3ccc(C(=O)NS(=O)(=O)c4ccc(N[C@H](CCN5CCOCC5)CSc5ccccc5)c(S(=O)(=O)C(F)(F)F)c4)cc3)CC2)C1` [Navitoclax] + Cc1nc(Nc2ncc(C(=O)Nc3c(C)cccc3Cl)s2)cc(N2CCN(CCO)CC2)n1 [Dasatinib] (partner 0.075 µM), the relative viability ([1]; first compound 0.005 µM) was 0.588, the relative viability ([1]; first compound 0.01581 µM) was 0.644 and the relative viability ([1]; first compound 0.05 µM) was 0.49. It also gave a relative viability ([1]; first compound 0.1581 µM) of 0.555, a relative viability ([1]; first compound 0.5 µM) of 0.61 and a relative viability ([2]; first compound 0.005 µM) of 0.433. For the same compound, the relative viability ([2]; first compound 0.01581 µM) was 0.6, the relative viability ([2]; first compound 0.05 µM) was 0.325 and the relative viability ([2]; first compound 0.1581 µM) was 0.492. The relative viability ([2]; first compound 0.5 µM) was 0.506, the relative viability ([3]; first compound 0.005 µM) was 0.479 and the relative viability ([3]; first compound 0.01581 µM) was 0.627. It also gave a relative viability ([3]; first compound 0.05 µM) of 0.322, a relative viability ([3]; first compound 0.1581 µM) of 0.639 and a relative viability ([3]; first compound 0.5 µM) of 0.666. It also gave a relative viability ([4]; first compound 0.005 µM) of 0.587, a relative viability ([4]; first compound 0.01581 µM) of 0.689 and a relative viability ([4]; first compound 0.1581 µM) of 0.709. The relative viability ([4]; first compound 0.5 µM) was 0.646, the relative viability ([5]; first compound 0.005 µM) was 0.405 and the relative viability ([5]; first compound 0.01581 µM) was 0.351. It also gave a relative viability ([5]; first compound 0.1581 µM) of 0.403, a relative viability ([5]; first compound 0.5 µM) of 0.381 and a relative viability ([6]; first compound 0.005 µM) of 0.442. It also gave a relative viability ([6]; first compound 0.01581 µM) of 0.812, a relative viability ([6]; first compound 0.05 µM) of 0.691 and a relative viability ([6]; first compound 0.1581 µM) of 0.406. It also gave a relative viability ([6]; first compound 0.5 µM) of 0.342, a relative viability ([7]; first compound 0.005 µM) of 0.522 and a relative viability ([7]; first compound 0.01581 µM) of 0.566. For the same compound, the relative viability ([7]; first compound 0.05 µM) was 0.454, the relative viability ([7]; first compound 0.1581 µM) was 0.5 and the relative viability ([7]; first compound 0.5 µM) was 0.377. For the same compound, the relative viability ([8]; first compound 0.005 µM) was 0.542, the relative viability ([8]; first compound 0.01581 µM) was 0.879 and the relative viability ([8]; first compound 0.05 µM) was 0.418. The relative viability ([8]; first compound 0.1581 µM) was 0.618, the relative viability ([8]; first compound 0.5 µM) was 0.821 and the relative viability ([9]; first compound 0.005 µM) was 0.404. For the same compound, the relative viability ([9]; first compound 0.01581 µM) was 0.42, the relative viability ([9]; first compound 0.05 µM) was 0.378 and the relative viability ([9]; first compound 0.1581 µM) was 0.387. The relative viability ([9]; first compound 0.5 µM) was 0.483, the relative viability ([10]; first compound 0.005 µM) was 0.37 and the relative viability ([10]; first compound 0.01581 µM) was 0.41. It also gave a relative viability ([10]; first compound 0.05 µM) of 0.308, a relative viability ([10]; first compound 0.1581 µM) of 0.455 and a relative viability ([10]; first compound 0.5 µM) of 0.456. It also gave a relative viability ([11]; first compound 0.005 µM) of 0.41, a relative viability ([11]; first compound 0.01581 µM) of 0.544 and a relative viability ([11]; first compound 0.1581 µM) of 0.425. For the same compound, the relative viability ([11]; first compound 0.5 µM) was 0.554, the relative viability ([12]; first compound 0.005 µM) was 0.396 and the relative viability ([12]; first compound 0.01581 µM) was 0.416. It also gave a relative viability ([12]; first compound 0.05 µM) of 0.262, a relative viability ([12]; first compound 0.1581 µM) of 0.339 and a relative viability ([12]; first compound 0.5 µM) of 0.281. The relative viability ([13]; first compound 0.005 µM) was 0.409, the relative viability ([13]; first compound 0.01581 µM) was 0.325 and the relative viability ([13]; first compound 0.1581 µM) was 0.293. For the same compound, the relative viability ([13]; first compound 0.5 µM) was 0.147, the relative viability ([14]; first compound 0.005 µM) was 0.235 and the relative viability ([14]; first compound 0.01581 µM) was 0.235. The relative viability ([14]; first compound 0.05 µM) was 0.268, the relative viability ([14]; first compound 0.1581 µM) was 0.282 and the relative viability ([14]; first compound 0.5 µM) was 0.398. For the same compound, the relative viability ([15]; first compound 0.005 µM) was 0.901, the relative viability ([15]; first compound 0.01581 µM) was 0.88 and the relative viability ([15]; first compound 0.1581 µM) was 0.887. It also gave a relative viability ([15]; first compound 0.5 µM) of 0.793, a relative viability ([16]; first compound 0.005 µM) of 0.557 and a relative viability ([16]; first compound 0.01581 µM) of 0.528. The relative viability ([16]; first compound 0.05 µM) was 0.397, the relative viability ([16]; first compound 0.1581 µM) was 0.595 and the relative viability ([16]; first compound 0.5 µM) was 0.574. For the same compound, the relative viability ([17]; first compound 0.005 µM) was 0.519, the relative viability ([17]; first compound 0.01581 µM) was 0.525 and the relative viability ([17]; first compound 0.1581 µM) was 0.592. The relative viability ([17]; first compound 0.5 µM) was 0.517, the relative viability ([18]; first compound 0.005 µM) was 0.189 and the relative viability ([18]; first compound 0.01581 µM) was 0.209. The relative viability ([18]; first compound 0.05 µM) was 0.146, the relative viability ([18]; first compound 0.1581 µM) was 0.196 and the relative viability ([18]; first compound 0.5 µM) was 0.132. It also gave a relative viability ([19]; first compound 0.005 µM) of 0.72, a relative viability ([19]; first compound 0.01581 µM) of 0.838 and a relative viability ([19]; first compound 0.05 µM) of 0.904. The relative viability ([19]; first compound 0.1581 µM) was 0.821, the relative viability ([19]; first compound 0.5 µM) was 0.682 and the relative viability ([20]; first compound 0.005 µM) was 0.522. It also gave a relative viability ([20]; first compound 0.01581 µM) of 0.609, a relative viability ([20]; first compound 0.05 µM) of 0.651 and a relative viability ([20]; first compound 0.1581 µM) of 0.53. The relative viability ([20]; first compound 0.5 µM) was 0.483, the relative viability ([21]; first compound 0.005 µM) was 1.02 and the relative viability ([21]; first compound 0.01581 µM) was 1.07. The relative viability ([21]; first compound 0.05 µM) was 0.773, the relative viability ([21]; first compound 0.1581 µM) was 0.97 and the relative viability ([21]; first compound 0.5 µM) was 0.858. The relative viability ([22]; first compound 0.005 µM) was 0.787, the relative viability ([22]; first compound 0.01581 µM) was 0.757 and the relative viability ([22]; first compound 0.05 µM) was 0.817. For the same compound, the relative viability ([22]; first compound 0.1581 µM) was 0.823, the relative viability ([22]; first compound 0.5 µM) was 0.918 and the relative viability ([23]; first compound 0.005 µM) was 0.451. It also gave a relative viability ([23]; first compound 0.01581 µM) of 0.464, a relative viability ([23]; first compound 0.05 µM) of 0.502 and a relative viability ([23]; first compound 0.1581 µM) of 0.471. The relative viability ([23]; first compound 0.5 µM) was 0.324.
